Results from patent US8586617B2, “Aminomethyl-4-imidazoles” (Hoffmann-La Roche Inc., priority 2006, dated 2013).

The compounds below were run against TAAR1 (Mus musculus (Mouse), UniProt Q923Y8) (assay: TAAR1 radioligand binding assay ([3H]-rac-2-(1,2,3,4-tetrahydro-1-naphthyl)-2-imidazoline, membranes of stably transfected HEK293 cells)). Conditions: read-out: Ki (μM) mouse; mouse TAAR1; radioligand [3H]-rac-2-(1,2,3,4-tetrahydro-1-naphthyl)-2-imidazoline at 60 nM; 4° C., 30 minutes.
TAAR1, sequence (Q923Y8 whole entry): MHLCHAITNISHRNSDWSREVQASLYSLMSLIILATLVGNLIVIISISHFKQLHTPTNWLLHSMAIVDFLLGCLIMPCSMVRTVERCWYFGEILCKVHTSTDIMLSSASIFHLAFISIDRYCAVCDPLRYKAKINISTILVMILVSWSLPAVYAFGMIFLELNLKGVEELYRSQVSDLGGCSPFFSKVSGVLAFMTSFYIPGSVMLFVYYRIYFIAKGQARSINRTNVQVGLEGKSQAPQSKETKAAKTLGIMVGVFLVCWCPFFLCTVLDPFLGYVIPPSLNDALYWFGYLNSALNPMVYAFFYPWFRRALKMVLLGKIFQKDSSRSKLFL
Procedure: The ability of the compounds of the present invention to bind to TAAR1 was investigated in accordance with the test given hereinafter.
For the generation of stably transfected cell lines HEK293 cells were transfected with the pIRESneo2 expression plasmids containing the TAAR coding sequences (described above) with Lipofectamine 2000 (Invitrogen) according to the instructions of the manufacturer, and 24 hours post transfection the culture medium was supplemented with 1 mg/ml G418 (Sigma, Buchs, Switzerland). After a culture period of about 10 days, clones were isolated, expanded and tested for responsiveness to trace amines (all compounds purchased from Sigma) with the cAMP Biotrak Enzyme immunoassay (EIA) System (Amersham) following the non-acetylation EIA procedure provided by the manufacturer.
Cells at confluence were rinsed with ice-cold phosphate buffered saline without Ca^2+ and Mg^2+ containing 10 mM EDTA and pelleted by centrifugation at 1000 rpm for 5 min at 4° C. The pellet was then washed twice with ice-cold phosphate buffered saline and cell pellet was frozen immediately by immersion in liquid nitrogen and stored until use at −80° C. The cell pellet was then suspended in 20 ml HEPES-NaOH (20 mM), pH 7.4 containing 10 mM EDTA, and homogenized with a Polytron (PT 3000, Kinematica) at 10,000 rpm for 10 seconds. The homogenate was centrifuged at 48,000×g for 30 minutes at 4° C. and the pellet resuspended in 20 ml HEPES-NaOH (20 mM), pH 7.4 containing 0.1 mM EDTA (buffer A), and homogenized with a Polytron at 10,000 rpm for 10 seconds. The homogenate was then centrifuged at 48,000×g for 30 minutes at 4° C. and the pellet resuspended in 20 ml buffer A, and homogenized with a Polytron at 10,000 rpm for 10 seconds. […] The homogenate was then centrifuged at 48,000×g for 10 minutes at 4° C., resuspended in HEPES-NaOH (20 mM), pH 7.0 including MgCl2 (10 mM) and CaCl2 (2 ml) (buffer B) at 200 μg protein per ml and homogenized with a Polytron at 10,000 rpm for 10 seconds.
Binding assay was performed at 4° C. in a final volume of 1 ml, and with an incubation time of 30 minutes. […] Non-specific binding was defined as the amount of [^3H]-rac-2-(1,2,3,4-tetrahydro-1-naphthyl)-2-imidazoline bound in the presence of the appropriate unlabelled ligand (10 μM). Competing ligands were tested in a wide range of concentrations (10 pM-30 μM). […] Each experiment was performed in duplicate. All incubations were terminated by rapid filtration through UniFilter-96 plates (Packard Instrument Company) and glass filter GF/C, pre-soaked for at least 2 h in polyethylenimine 0.3%, and using a Filtermate 96 Cell Harvester (Packard Instrument Company). The tubes and filters were then washed 3 times with 1 ml aliquots of cold buffer B. Filters were not dried and soaked in Ultima gold (45 D/well, Packard Instrument Company) and bound radioactivity was counted by a TopCount Microplate Scintillation Counter (Packard Instrument Company).

Ki | SMILES
0.0023 µM | CC(C)N(Cc1cnc[nH]1)c1cccc(C(F)(F)F)c1 [Example 27, (3H-Imidazol-4-ylmethyl)-isopropyl-(3-trifluoromethyl-phenyl)-amine]
0.002 µM | CCN(Cc1cnc[nH]1)c1cc(F)cc(F)c1 [Example 306, (3,5-Difluoro-phenyl)-ethyl-(1H-imidazol-4-ylmethyl)-amine]
0.0026 µM | Fc1cc(Cl)cc(NCc2cnc[nH]2)c1 [Example 179, (3-Chloro-5-fluoro-phenyl)-(1H-imidazol-4-ylmethyl)-amine]
0.0025 µM | CC(C)N(Cc1cnc[nH]1)c1ccc(F)c(Br)c1 [Example 170, (3-Bromo-4-fluoro-phenyl)-(3H-imidazol-4-ylmethyl)-isopropyl-amine]
0.001 µM | CCN(Cc1cnc[nH]1)c1cc(Cl)cc(Cl)c1 [Example 303, (3,5-Dichloro-phenyl)-ethyl-(1H-imidazol-4-ylmethyl)-amine]
0.001 µM | CCN(Cc1cnc[nH]1)c1cc(F)cc(Cl)c1 [Example 308, (3-Chloro-5-fluoro-phenyl)-ethyl-(1H-imidazol-4-ylmethyl)-amine]
0.0036 µM | CCN(Cc1cnc[nH]1)c1cccc(Cl)c1F [Example 81, (3-Chloro-2-fluoro-phenyl)-ethyl-(3H-imidazol-4-ylmethyl)-amine]
0.001 µM | CC(C)N(Cc1cnc[nH]1)c1ccc(Br)c(Cl)c1 [Example 331, (4-Bromo-3-chloro-phenyl)-(1#H!-imidazol-4-ylmethyl)-isopropyl-amine]
0.0051 µM | Fc1ccc(NCc2cnc[nH]2)cc1Br [Example 183, (3-Bromo-4-fluoro-phenyl)-(3H-imidazol-4-ylmethyl)-amine]
0.007 µM | CN(Cc1cnc[nH]1)c1cc(F)cc(F)c1 [Example 292, (3,5-Difluoro-phenyl)-(1H-imidazol-4-ylmethyl)-methyl-amine]
0.0044 µM | CC(C)N(Cc1cnc[nH]1)c1cccc(OC(F)(F)C(F)F)c1 [Example 125, (3H-Imidazol-4-ylmethyl)-isopropyl-[3-(1,1,2,2-tetrafluoro-ethoxy)-phenyl]-amine]
0.001 µM | CCN(Cc1cnc[nH]1)c1cccc(Br)c1 [Example 275, (3-Bromo-phenyl)-ethyl-(3H-imidazol-4-ylmethyl)-amine]
0.0045 µM | CN(Cc1cnc[nH]1)c1ccc(Cl)cc1 [Example 10, (4-Chloro-phenyl)-(3H-imidazol-4-ylmethyl)-methyl-amine]
0.0094 µM | c1ccc(Nc2ccc(NCc3cnc[nH]3)cc2)cc1 [Example 155, N-(1H-Imidazol-4-ylmethyl)-N′-phenyl-benzene-1,4-diamine]
0.0015 µM | CC(C)N(Cc1cnc[nH]1)c1ccc(F)c(Cl)c1 [Example 53, (3-Chloro-4-fluoro-phenyl)-(3H-imidazol-4-ylmethyl)-isopropyl-amine]
0.0009 µM | Clc1cccc(N(Cc2cnc[nH]2)CC2CC2)c1 [Example 51, (3-Chloro-phenyl)-cyclopropylmethyl-(3H-imidazol-4-ylmethyl)-amine]
0.0082 µM | CC(C)N(Cc1cnc[nH]1)c1ccc2ccccc2c1 [Example 70, (3H-Imidazol-4-ylmethyl)-isopropyl-naphthalen-2-yl-amine]

Ki | SMILES
0.0089 µM | COc1cccc(N(C)Cc2cnc[nH]2)c1 [Example 186, (3H-Imidazol-4-ylmethyl)-(3-methoxy-phenyl)-methyl-amine]
0.002 µM | FC(F)(F)Oc1ccc(NCc2cnc[nH]2)cc1Cl [Example 327, (3-Chloro-4-trifluoromethoxy-phenyl)-(1H-imidazol-4-ylmethyl)-amine]
0.0024 µM | CCN(Cc1cnc[nH]1)c1cccc(Oc2ccccc2)c1 [Example 188, Ethyl-(3H-imidazol-4-ylmethyl)-(3-phenoxy-phenyl)-amine]
0.0039 µM | CCN(Cc1cnc[nH]1)c1ccc(Oc2ccc(Cl)cc2)c(Cl)c1 [Example 139, [3-Chloro-4-(4-chloro-phenoxy)-phenyl]-ethyl-(1H-imidazol-4-ylmethyl)-amine]
0.0067 µM | CC(C)N(Cc1cnc[nH]1)c1ccc(OC(F)(F)F)cc1 [Example 67, (3H-Imidazol-4-ylmethyl)-isopropyl-(4-trifluoromethoxy-phenyl)-amine]
0.003 µM | CC(C)N(Cc1cnc[nH]1)c1cc(F)cc(F)c1 [Example 101, (3,5-Difluoro-phenyl)-(3H-imidazol-4-ylmethyl)-isopropyl-amine]
0.0014 µM | CCN(Cc1cnc[nH]1)c1ccc(F)c(F)c1 [Example 58, (3,4-Difluoro-phenyl)-ethyl-(3H-imidazol-4-ylmethyl)-amine]
0.001 µM | CN(Cc1cnc[nH]1)c1cc(Cl)cc(Cl)c1 [Example 291, (3,5-Dichloro-phenyl)-(1H-imidazol-4-ylmethyl)-methyl-amine]
0.001 µM | FC(F)(F)c1cc(Br)cc(NCc2cnc[nH]2)c1 [Example 226, (3-Bromo-5-trifluoromethyl-phenyl)-(3H-imidazol-4-ylmethyl)-amine]
0.002 µM | CC(C)c1cccc(NCc2cnc[nH]2)c1 [Example 228, (3H-Imidazol-4-ylmethyl)-(3-isopropyl-phenyl)-amine]
0.003 µM | CC(C)N(Cc1cnc[nH]1)c1ccc(F)c(Oc2ccccc2)c1 [Example 208, (4-Fluoro-3-phenoxy-phenyl)-(3H-imidazol-4-ylmethyl)-isopropyl-amine]
0.007 µM | CN(Cc1cnc[nH]1)c1ccc(F)c(F)c1 [Example 287, (3,4-Difluoro-phenyl)-(1H-imidazol-4-ylmethyl)-methyl-amine]
0.0039 µM | Clc1cccc(N(Cc2cnc[nH]2)Cc2ccccc2Cl)c1 [Example 18, (2-Chloro-benzyl)-(3-chloro-phenyl)-(1H-imidazol-4-ylmethyl)-amine]
0.008 µM | CCN(Cc1cnc[nH]1)c1cccc(OC)c1 [Example 193, Ethyl-(3H-imidazol-4-ylmethyl)-(3-methoxy-phenyl)-amine]
0.004 µM | CC(C)N(Cc1cnc[nH]1)c1cccc(Br)n1 [Example 244, (6-Bromo-pyridin-2-yl)-(3H-imidazol-4-ylmethyl)-isopropyl-amine]
0.0053 µM | CC(C)N(Cc1cnc[nH]1)c1ccc(F)c(F)c1 [Example 77, (3,4-Difluoro-phenyl)-(3H-imidazol-4-ylmethyl)-isopropyl-amine]

SMILES | Ki
CN(Cc1cnc[nH]1)c1cccc(Br)c1 [Example 284, (3-Bromo-phenyl)-(3H-imidazol-4-ylmethyl)-methyl-amine] | 0.002 µM
CCN(Cc1cnc[nH]1)c1ccc2ccccc2c1 [Example 82, Ethyl-(3H-imidazol-4-ylmethyl)-naphthalen-2-yl-amine] | 0.0012 µM
CCN(Cc1cnc[nH]1)c1ccc(F)c(OC)c1 [Example 194, Ethyl-(4-fluoro-3-methoxy-phenyl)-(3H-imidazol-4-ylmethyl)-amine] | 0.0048 µM
CN(Cc1cnc[nH]1)c1cccc(OCc2ccccc2)c1 [Example 190, (3-Benzyloxy-phenyl)-(3H-imidazol-4-ylmethyl)-methyl-amine] | 0.0014 µM
CC(C)N(Cc1cnc[nH]1)c1ccc2c(c1)CCC2 [Example 73, (3H-Imidazol-4-ylmethyl)-indan-5-yl-isopropyl-amine] | 0.0055 µM
Cc1cccc(N(Cc2cnc[nH]2)C(C)C)c1 [Example 26, (3H-Imidazol-4-ylmethyl)-isopropyl-m-tolyl-amine] | 0.0034 µM
